Data reported in PubChem BioAssay AID248 (DTP/NCI, 2004).
Values joined by “and” are separate entries in the source; they are usually repeats but may differ in a detail not shown here. Identical values can stand only once. Toxic doses and inconclusive results are not listed. Rule as the data show it: active = T/C of 150% or more; inactive = T/C below 125%.

Test system: L1210 leukemia ip in BDF1 mice, survival T/C
Assay: NCI In Vivo Anticancer Drug Screen. Data for tumor model L1210 Leukemia (intraperitoneal) in B6D2F1 (BDF1) mice
Settings: endpoint: mean survival time, higher = longer survival
Method in brief: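 Survival endpoint. Drug-treated group vs vehicle group, expressed as T divided by C. Tumor passaged by transplantation.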

[1] = dose: 12.5 mg/kg/injection, schedule: Q04DX003 (ip), vehicle: saline
[2] = dose: 100.0 mg/kg/injection, schedule: Q01DX001 (ip), vehicle: saline
[3] = dose: 200.0 mg/kg/injection, schedule: Q01DX001 (ip), vehicle: saline
[4] = dose: 400.0 mg/kg/injection, schedule: Q01DX001 (ip), vehicle: saline
[5] = dose: 100.0 mg/kg/injection, schedule: Q01DX009 (ip), vehicle: Klucel (hydroxypropylcellulose) (HPC)
[6] = dose: 200.0 mg/kg/injection, schedule: Q01DX009 (ip), vehicle: Klucel (hydroxypropylcellulose) (HPC)
[7] = dose: 400.0 mg/kg/injection, schedule: Q01DX009 (ip), vehicle: Klucel (hydroxypropylcellulose) (HPC)
[8] = dose: 100.0 mg/kg/injection, schedule: Q01DX001 (ip), vehicle: saline with Tween-80
[9] = dose: 200.0 mg/kg/injection, schedule: Q01DX001 (ip), vehicle: saline with Tween-80

Measured: T/C

CCOC(=O)c1nc2nc(Cl)c(Cl)nc2[nH]1
inactive: [1] 102 % of control | dose: 25.0 mg/kg/injection, schedule: Q01DX009 (ip), vehicle: saline 107 % of control | dose: 25.0 mg/kg/injection, schedule: Q04DX003 (ip), vehicle: saline 100 % of control | dose: 50.0 mg/kg/injection, schedule: Q01DX009 (ip), vehicle: saline 105 % of control | dose: 50.0 mg/kg/injection, schedule: Q04DX003 (ip), vehicle: saline 105 % of control | dose: 100.0 mg/kg/injection, schedule: Q01DX009 (ip), vehicle: saline 96 % of control | dose: 100.0 mg/kg/injection, schedule: Q04DX003 (ip), vehicle: saline 99 % of control | dose: 200.0 mg/kg/injection, schedule: Q04DX003 (ip), vehicle: saline 98 % of control | dose: 400.0 mg/kg/injection, schedule: Q04DX003 (ip), vehicle: saline 96 % of control

CC(C)=CCC/C(C)=C\C(N)=O
inactive: [2] 106 % of control | [3] 92 % of control | [4] 111 % of control

CC12CC3CC(C)(C1)CC(CN=C(N)CCl)(C3)C2
inactive: dose: 6.25 mg/kg/injection, schedule: Q01DX009 (ip), vehicle: Klucel (hydroxypropylcellulose) (HPC) 106 % of control | dose: 12.5 mg/kg/injection, schedule: Q01DX009 (ip), vehicle: Klucel (hydroxypropylcellulose) (HPC) 100 % of control | dose: 12.5 mg/kg/injection, schedule: Q04DX002 (ip), vehicle: Klucel (hydroxypropylcellulose) (HPC) 96 % of control | dose: 25.0 mg/kg/injection, schedule: Q04DX002 (ip), vehicle: Klucel (hydroxypropylcellulose) (HPC) 96 % of control

CC(=O)N1C(=O)c2ccccc2C1=O
inactive: dose: 100.0 mg/kg/injection, schedule: Q01DX001 (ip), vehicle: Klucel (hydroxypropylcellulose) (HPC) 95 % of control | [5] 93 % of control | dose: 200.0 mg/kg/injection, schedule: Q01DX001 (ip), vehicle: Klucel (hydroxypropylcellulose) (HPC) 92 % of control | [6] 93 % of control | dose: 400.0 mg/kg/injection, schedule: Q01DX001 (ip), vehicle: Klucel (hydroxypropylcellulose) (HPC) 92 % of control | [7] 90 % of control

Cc1c(C)c2c(c(C)c1O)CC(CC(=O)CO)CO2 (stereo not drawn)
inactive: [8] 97 % of control | [9] 95 % of control | dose: 400.0 mg/kg/injection, schedule: Q01DX001 (ip), vehicle: saline with Tween-80 97 % of control

C(=P(c1ccccc1)(c1ccccc1)c1ccccc1)[P+](c1ccccc1)(c1ccccc1)c1ccccc1
inactive: dose: 0.78 mg/kg/injection, schedule: Q01DX009 (ip), vehicle: saline 102 % of control and 109 % of control | dose: 1.56 mg/kg/injection, schedule: Q01DX009 (ip), vehicle: saline 98 % of control and 88 % of control | dose: 3.12 mg/kg/injection, schedule: Q01DX009 (ip), vehicle: saline 100 % of control | dose: 3.13 mg/kg/injection, schedule: Q01DX001 (ip), vehicle: saline 90 % of control | dose: 3.13 mg/kg/injection, schedule: Q04DX002 (ip), vehicle: saline 97 % of control | dose: 3.13 mg/kg/injection, schedule: Q04DX003 (ip), vehicle: saline 102 % of control | dose: 6.0 mg/kg/injection, schedule: Q01DX009 (ip), vehicle: saline 106 % of control | dose: 6.25 mg/kg/injection, schedule: Q01DX001 (ip), vehicle: saline 100 % of control | dose: 6.25 mg/kg/injection, schedule: Q01DX009 (ip), vehicle: saline 117 % of control | dose: 6.25 mg/kg/injection, schedule: Q04DX002 (ip), vehicle: saline 96 % of control and 100 % of control | dose: 6.25 mg/kg/injection, schedule: Q04DX003 (ip), vehicle: saline 106 % of control | dose: 9.3 mg/kg/injection, schedule: Q01DX009 (ip), vehicle: saline 95 % of control | dose: 12.5 mg/kg/injection, schedule: Q01DX001 (ip), vehicle: saline 97 % of control | dose: 12.5 mg/kg/injection, schedule: Q01DX009 (ip), vehicle: saline 115 % of control and 117 % of control | dose: 12.5 mg/kg/injection, schedule: Q04DX002 (ip), vehicle: saline 97 % of control and 99 % of control | [1] 101 % of control | dose: 13.0 mg/kg/injection, schedule: Q01DX009 (ip), vehicle: saline 93 % of control | dose: 100.0 mg/kg/injection, schedule: Q04DX002 (ip), vehicle: saline 90 % of control | dose: 200.0 mg/kg/injection, schedule: Q04DX002 (ip), vehicle: saline 93 % of control

C=C1CC2(CCCC3(CC(=C)C(=O)O3)C2(C)C)OC1=O (stereo not drawn)
inactive: [2] 102 % of control | [3] 119 % of control

CN(C)NC(=O)/C=C\C(=O)O
inactive: dose: 100.0 mg/kg/injection, schedule: Q04DX002 (ip), vehicle: saline with Tween-80 93 % of control | dose: 200.0 mg/kg/injection, schedule: Q04DX002 (ip), vehicle: saline with Tween-80 100 % of control | dose: 400.0 mg/kg/injection, schedule: Q04DX002 (ip), vehicle: saline with Tween-80 93 % of control

COc1cc2c(cc1NC(=O)C(F)(F)F)-c1ccc(NC(=O)C(F)(F)F)cc1C2
inactive: dose: 75.0 mg/kg/injection, schedule: Q01DX001 (ip), vehicle: carboxymethylcellulose (CMC) 88 % of control | dose: 150.0 mg/kg/injection, schedule: Q01DX001 (ip), vehicle: carboxymethylcellulose (CMC) 98 % of control | dose: 300.0 mg/kg/injection, schedule: Q01DX001 (ip), vehicle: carboxymethylcellulose (CMC) 90 % of control

Cc1cccc(Cl)c1NC(=O)NCCCl
inactive: dose: 100.0 mg/kg/injection, schedule: Q04DX003 (ip), vehicle: Klucel (hydroxypropylcellulose) (HPC) 94 % of control | dose: 200.0 mg/kg/injection, schedule: Q04DX003 (ip), vehicle: Klucel (hydroxypropylcellulose) (HPC) 92 % of control | dose: 400.0 mg/kg/injection, schedule: Q04DX003 (ip), vehicle: Klucel (hydroxypropylcellulose) (HPC) 94 % of control

Cc1nc(N)ccc1[N+](=O)[O-]
inactive: dose: 100.0 mg/kg/injection, schedule: Q04DX003 (ip), vehicle: saline sonified 98 % of control | dose: 200.0 mg/kg/injection, schedule: Q04DX003 (ip), vehicle: saline sonified 101 % of control | dose: 400.0 mg/kg/injection, schedule: Q04DX003 (ip), vehicle: saline sonified 104 % of control

Cc1ccc(NC(=O)CCC(=O)O)cc1[N+](=O)[O-]
inactive: [5] 97 % of control | [6] 101 % of control | [7] 98 % of control

FC(F)(F)C(F)(F)C1=NS1(C(F)(C(F)(F)F)C(F)(F)F)C(F)(C(F)(F)F)C(F)(F)F
inactive: dose: 100.0 mg/kg/injection, schedule: Q01DX001 (ip), vehicle: acetone 94 % of control | dose: 200.0 mg/kg/injection, schedule: Q01DX001 (ip), vehicle: acetone 103 % of control | dose: 400.0 mg/kg/injection, schedule: Q01DX001 (ip), vehicle: acetone 101 % of control

CC1(C)N=C(N)N=C(N)N1CCCOc1ccc(NC(=O)Nc2cccc(S(=O)(=O)F)c2)cc1
inactive: dose: 25.0 mg/kg/injection, schedule: Q01DX001 (ip), vehicle: saline with Tween-80 102 % of control | dose: 50.0 mg/kg/injection, schedule: Q01DX001 (ip), vehicle: saline with Tween-80 100 % of control

CCCCN1C(=O)c2c(Cl)c(Cl)c(Cl)c(Cl)c2C1=O
inactive: dose: 200.0 mg/kg/injection, schedule: Q04DX002 (ip), vehicle: other 94 % of control | dose: 400.0 mg/kg/injection, schedule: Q04DX002 (ip), vehicle: other 92 % of control

CC1CC([O-])=N/[N+]1=C\c1ccccc1 (stereo not drawn)
inactive: [2] 97 % of control | dose: 100.0 mg/kg/injection, schedule: Q01DX009 (ip), vehicle: saline with Tween-80 96 % of control | [3] 95 % of control | dose: 200.0 mg/kg/injection, schedule: Q01DX009 (ip), vehicle: saline with Tween-80 87 % of control | [4] 97 % of control

CCCC(C)C(=O)OCP(=O)(COC(=O)C(C)CCC)COC(=O)C(C)CCC (stereo not drawn)
inactive: [8] 97 % of control | [9] 89 % of control

O=C(NCc1ccccc1)c1ccc(C(=O)NCc2ccccc2)cc1
inactive: dose: 100.0 mg/kg/injection, schedule: Q01DX001 (ip), vehicle: other 90 % of control | dose: 200.0 mg/kg/injection, schedule: Q01DX001 (ip), vehicle: other 88 % of control | dose: 400.0 mg/kg/injection, schedule: Q01DX001 (ip), vehicle: other 96 % of control
